Molecular target: T1, protein tyrosine phosphatase (PTP) 1B (Homo sapiens, UniProt P18031)
T1 sequence (P18031 1-435): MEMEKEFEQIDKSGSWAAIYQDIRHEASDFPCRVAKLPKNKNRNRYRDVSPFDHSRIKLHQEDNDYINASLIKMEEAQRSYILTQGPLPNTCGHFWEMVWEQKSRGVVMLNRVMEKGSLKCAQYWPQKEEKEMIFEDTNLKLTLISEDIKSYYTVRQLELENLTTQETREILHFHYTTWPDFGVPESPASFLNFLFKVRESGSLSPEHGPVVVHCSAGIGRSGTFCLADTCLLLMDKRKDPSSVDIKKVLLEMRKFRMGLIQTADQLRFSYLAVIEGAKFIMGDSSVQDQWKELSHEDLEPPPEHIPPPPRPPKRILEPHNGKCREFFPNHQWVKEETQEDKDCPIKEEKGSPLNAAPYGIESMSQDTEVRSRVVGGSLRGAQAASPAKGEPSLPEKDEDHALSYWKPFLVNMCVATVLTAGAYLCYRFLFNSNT
Assay: in vitro PTP1B inhibitor screening assay
Assay type: biochemical

For `C[C@H]1Oc2cc3c(-c4c(O)cc(O)c5c(O)c6c(cc45)O[C@H](C)[C@@H](C)C6=O)c(O)cc(O)c3c(O)c2C(=O)[C@@H]1C` [4548-G05, [9,9′-Bi-4H-naphtho[2,3-b]pyran]-4,4′-dione,2,2′,3,3′-tetrahydro-5,5′,6,6′,8,8′-hexahydroxy-2,2′,3,3′-tetramethyl], the IC50 was 75.3 ± 2.52 µM.

— article PMC3964510 (Diabetes, 2014)
